In general, IC50 refers to the concentration at which inhibition is half-maximal.

The target in one test is T1, α1H (CaV 3.2) (Homo sapiens, UniProt O95180).
T1 construct: expressed in transfected cells; host or cells: HEK 293
Put plainly: T-type calcium channel block, whole cell patch clamp. Format: cell-based. To be noted: HEK cells, mainly non-inactivated protocol; values above 10,000 nM represented as 10000. As for the experimental part:
(§1) T-type calcium channel blocking activity was assayed in human embryonic kidney cells, HEK 293 (Invitrogen), stably transfected with the T-type calcium channel subunits. Briefly, cells were cultured in Dulbecco's modified eagle medium (DMEM) supplemented with 10% fetal bovine serum, 200 U/ml penicillin, and 0.2 mg/mL streptomycin at 37° C. with 5% CO2. At 85% confluency, cells were split with 0.25% trypsin/1 mM EDTA and plated at 10% confluency on glass coverslips. At 12 hours, the medium was replaced, and the cells stably transfected using a standard calcium phosphate protocol and the appropriate calcium channel cDNA's. Fresh DMEM was supplied, and the cells transferred to 28° C./5% CO2. Cells were incubated for 1 to 2 days prior to whole cell recording.
(§2) Standard patch-clamp techniques were employed to identify blockers of T-type currents. Briefly, previously described HEK cell lines stably expressing human α1G, α1H and α1I T-type channels were used for all the recordings (passage #: 4-20, 37° C., 5% CO2). Whole cell patch clamp experiments were performed using an Axopatch 200B amplifier (Axon Instruments, Burlingame, Calif.) linked to a personal computer equipped with pCLAMP software. Data were analyzed using Clampfit (Axon Instruments) and SigmaPlot 4.0 (Jandel Scientific). To obtain T-type currents, plastic dishes containing semi-confluent cells were positioned on the stage of a ZEISS AXIOVERT S100 microscope after replacing the culture medium with external solution (Table 2). Whole-cell patches were obtained using pipettes (borosilicate glass with filament, O.D.: 1.5 mm, I.D.: 0.86 mm, 10 cm length), fabricated on a SUTTER P-97 puller with resistance values of ˜5 MΩ (Table 3).
(§3) T-type currents were reliably obtained by using two voltage protocols:
(§4) In the non-inactivating protocol, the holding potential is set at −110 mV and with a pre-pulse at −100 mV for 1 second prior to the test pulse at −40 mV for 50 ms. In the inactivation protocol, the pre-pulse is at approximately −85 mV for 1 second, which inactivates about 15% of the T-type channels (Scheme 1).
(§5) Test compounds were dissolved in external solution, 0.1-0.01% DMSO. After ˜10 minutes rest, they were applied by gravity close to the cell using a WPI microfil tubing. The “non-inactivated” pre-pulse was used to examine the resting block of a compound. The “inactivated” protocol was employed to study voltage-dependent block. However, the initial data shown below were mainly obtained using the non-inactivated protocol only. IC50 values are shown for various compounds of the invention in Table 4. […] In Table 4, empty cells indicate that inhibition by the compound was not detected.
In general terms: In patch-clamp work, channel activity is measured electrically.

The next test addresses T2, α1G (CaV 3.1) (Homo sapiens, UniProt O43497).
T2 construct: expressed in transfected cells; host or cells: HEK 293
Described as above. Format: cell-based. To be noted: HEK cells, mainly non-inactivated protocol; values above 10,000 nM represented as 10000. As for the experimental part:
as §1, §2, §3, §4, §5

SMILES strings stand for the structures.

T1 sequence (O95180 whole entry): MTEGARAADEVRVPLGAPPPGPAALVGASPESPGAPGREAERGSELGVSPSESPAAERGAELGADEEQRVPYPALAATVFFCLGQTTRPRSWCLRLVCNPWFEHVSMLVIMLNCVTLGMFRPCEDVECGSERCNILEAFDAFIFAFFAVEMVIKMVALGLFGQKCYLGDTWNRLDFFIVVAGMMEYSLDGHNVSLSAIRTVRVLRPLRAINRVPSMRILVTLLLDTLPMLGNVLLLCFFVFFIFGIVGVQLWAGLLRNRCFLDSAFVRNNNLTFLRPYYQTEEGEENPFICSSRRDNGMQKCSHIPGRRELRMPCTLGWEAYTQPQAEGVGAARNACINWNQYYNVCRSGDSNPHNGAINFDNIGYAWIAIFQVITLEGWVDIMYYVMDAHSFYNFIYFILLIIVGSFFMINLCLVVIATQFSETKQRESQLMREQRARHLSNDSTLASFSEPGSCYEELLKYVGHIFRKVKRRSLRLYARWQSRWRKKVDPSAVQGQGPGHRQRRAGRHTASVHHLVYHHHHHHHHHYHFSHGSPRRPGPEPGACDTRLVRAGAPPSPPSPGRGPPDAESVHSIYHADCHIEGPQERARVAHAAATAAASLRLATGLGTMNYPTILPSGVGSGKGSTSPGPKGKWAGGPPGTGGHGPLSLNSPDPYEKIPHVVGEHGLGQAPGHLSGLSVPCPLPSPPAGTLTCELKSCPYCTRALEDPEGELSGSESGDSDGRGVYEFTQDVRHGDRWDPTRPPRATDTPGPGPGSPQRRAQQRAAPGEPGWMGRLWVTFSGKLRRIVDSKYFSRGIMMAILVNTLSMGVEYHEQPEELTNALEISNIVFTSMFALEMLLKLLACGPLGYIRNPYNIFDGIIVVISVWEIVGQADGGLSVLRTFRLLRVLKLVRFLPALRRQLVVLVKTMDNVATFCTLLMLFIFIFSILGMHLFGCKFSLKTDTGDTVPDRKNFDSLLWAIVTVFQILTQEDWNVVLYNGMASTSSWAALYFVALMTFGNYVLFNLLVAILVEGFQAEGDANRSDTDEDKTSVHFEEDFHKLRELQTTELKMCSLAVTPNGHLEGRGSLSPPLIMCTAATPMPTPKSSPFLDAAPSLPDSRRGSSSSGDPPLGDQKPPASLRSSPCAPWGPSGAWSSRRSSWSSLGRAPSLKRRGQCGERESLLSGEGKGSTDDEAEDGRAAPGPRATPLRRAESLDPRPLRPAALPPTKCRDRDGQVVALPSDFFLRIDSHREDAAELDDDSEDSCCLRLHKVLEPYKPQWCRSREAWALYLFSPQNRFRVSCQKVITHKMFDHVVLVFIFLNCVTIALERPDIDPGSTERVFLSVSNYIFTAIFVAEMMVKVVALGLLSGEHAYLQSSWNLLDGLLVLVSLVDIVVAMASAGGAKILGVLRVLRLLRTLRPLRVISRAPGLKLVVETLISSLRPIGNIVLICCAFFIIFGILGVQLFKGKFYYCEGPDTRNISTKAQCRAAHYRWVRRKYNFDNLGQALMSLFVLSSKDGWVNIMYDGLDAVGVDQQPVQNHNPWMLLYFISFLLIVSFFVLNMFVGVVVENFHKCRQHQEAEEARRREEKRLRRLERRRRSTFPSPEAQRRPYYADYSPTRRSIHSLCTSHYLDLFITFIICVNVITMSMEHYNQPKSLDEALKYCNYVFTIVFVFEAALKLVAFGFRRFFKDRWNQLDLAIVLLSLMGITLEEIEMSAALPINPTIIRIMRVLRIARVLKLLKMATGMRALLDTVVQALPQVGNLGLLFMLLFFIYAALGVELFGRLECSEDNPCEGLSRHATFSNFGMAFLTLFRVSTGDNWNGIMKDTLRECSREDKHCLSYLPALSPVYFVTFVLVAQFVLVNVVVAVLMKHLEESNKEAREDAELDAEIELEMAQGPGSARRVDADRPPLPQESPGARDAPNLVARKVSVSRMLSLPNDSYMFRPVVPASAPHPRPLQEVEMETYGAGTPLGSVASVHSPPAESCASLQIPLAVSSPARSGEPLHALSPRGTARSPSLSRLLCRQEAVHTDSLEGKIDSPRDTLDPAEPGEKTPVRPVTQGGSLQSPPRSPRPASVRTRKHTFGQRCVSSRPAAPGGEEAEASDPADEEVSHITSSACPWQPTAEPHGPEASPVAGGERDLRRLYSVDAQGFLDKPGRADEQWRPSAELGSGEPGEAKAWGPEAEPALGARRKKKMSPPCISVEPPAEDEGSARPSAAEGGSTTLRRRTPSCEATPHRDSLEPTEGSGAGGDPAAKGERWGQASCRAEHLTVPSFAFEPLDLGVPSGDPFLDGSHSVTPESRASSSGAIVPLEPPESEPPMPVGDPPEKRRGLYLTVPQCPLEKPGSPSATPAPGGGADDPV
T2 sequence (O43497 whole entry): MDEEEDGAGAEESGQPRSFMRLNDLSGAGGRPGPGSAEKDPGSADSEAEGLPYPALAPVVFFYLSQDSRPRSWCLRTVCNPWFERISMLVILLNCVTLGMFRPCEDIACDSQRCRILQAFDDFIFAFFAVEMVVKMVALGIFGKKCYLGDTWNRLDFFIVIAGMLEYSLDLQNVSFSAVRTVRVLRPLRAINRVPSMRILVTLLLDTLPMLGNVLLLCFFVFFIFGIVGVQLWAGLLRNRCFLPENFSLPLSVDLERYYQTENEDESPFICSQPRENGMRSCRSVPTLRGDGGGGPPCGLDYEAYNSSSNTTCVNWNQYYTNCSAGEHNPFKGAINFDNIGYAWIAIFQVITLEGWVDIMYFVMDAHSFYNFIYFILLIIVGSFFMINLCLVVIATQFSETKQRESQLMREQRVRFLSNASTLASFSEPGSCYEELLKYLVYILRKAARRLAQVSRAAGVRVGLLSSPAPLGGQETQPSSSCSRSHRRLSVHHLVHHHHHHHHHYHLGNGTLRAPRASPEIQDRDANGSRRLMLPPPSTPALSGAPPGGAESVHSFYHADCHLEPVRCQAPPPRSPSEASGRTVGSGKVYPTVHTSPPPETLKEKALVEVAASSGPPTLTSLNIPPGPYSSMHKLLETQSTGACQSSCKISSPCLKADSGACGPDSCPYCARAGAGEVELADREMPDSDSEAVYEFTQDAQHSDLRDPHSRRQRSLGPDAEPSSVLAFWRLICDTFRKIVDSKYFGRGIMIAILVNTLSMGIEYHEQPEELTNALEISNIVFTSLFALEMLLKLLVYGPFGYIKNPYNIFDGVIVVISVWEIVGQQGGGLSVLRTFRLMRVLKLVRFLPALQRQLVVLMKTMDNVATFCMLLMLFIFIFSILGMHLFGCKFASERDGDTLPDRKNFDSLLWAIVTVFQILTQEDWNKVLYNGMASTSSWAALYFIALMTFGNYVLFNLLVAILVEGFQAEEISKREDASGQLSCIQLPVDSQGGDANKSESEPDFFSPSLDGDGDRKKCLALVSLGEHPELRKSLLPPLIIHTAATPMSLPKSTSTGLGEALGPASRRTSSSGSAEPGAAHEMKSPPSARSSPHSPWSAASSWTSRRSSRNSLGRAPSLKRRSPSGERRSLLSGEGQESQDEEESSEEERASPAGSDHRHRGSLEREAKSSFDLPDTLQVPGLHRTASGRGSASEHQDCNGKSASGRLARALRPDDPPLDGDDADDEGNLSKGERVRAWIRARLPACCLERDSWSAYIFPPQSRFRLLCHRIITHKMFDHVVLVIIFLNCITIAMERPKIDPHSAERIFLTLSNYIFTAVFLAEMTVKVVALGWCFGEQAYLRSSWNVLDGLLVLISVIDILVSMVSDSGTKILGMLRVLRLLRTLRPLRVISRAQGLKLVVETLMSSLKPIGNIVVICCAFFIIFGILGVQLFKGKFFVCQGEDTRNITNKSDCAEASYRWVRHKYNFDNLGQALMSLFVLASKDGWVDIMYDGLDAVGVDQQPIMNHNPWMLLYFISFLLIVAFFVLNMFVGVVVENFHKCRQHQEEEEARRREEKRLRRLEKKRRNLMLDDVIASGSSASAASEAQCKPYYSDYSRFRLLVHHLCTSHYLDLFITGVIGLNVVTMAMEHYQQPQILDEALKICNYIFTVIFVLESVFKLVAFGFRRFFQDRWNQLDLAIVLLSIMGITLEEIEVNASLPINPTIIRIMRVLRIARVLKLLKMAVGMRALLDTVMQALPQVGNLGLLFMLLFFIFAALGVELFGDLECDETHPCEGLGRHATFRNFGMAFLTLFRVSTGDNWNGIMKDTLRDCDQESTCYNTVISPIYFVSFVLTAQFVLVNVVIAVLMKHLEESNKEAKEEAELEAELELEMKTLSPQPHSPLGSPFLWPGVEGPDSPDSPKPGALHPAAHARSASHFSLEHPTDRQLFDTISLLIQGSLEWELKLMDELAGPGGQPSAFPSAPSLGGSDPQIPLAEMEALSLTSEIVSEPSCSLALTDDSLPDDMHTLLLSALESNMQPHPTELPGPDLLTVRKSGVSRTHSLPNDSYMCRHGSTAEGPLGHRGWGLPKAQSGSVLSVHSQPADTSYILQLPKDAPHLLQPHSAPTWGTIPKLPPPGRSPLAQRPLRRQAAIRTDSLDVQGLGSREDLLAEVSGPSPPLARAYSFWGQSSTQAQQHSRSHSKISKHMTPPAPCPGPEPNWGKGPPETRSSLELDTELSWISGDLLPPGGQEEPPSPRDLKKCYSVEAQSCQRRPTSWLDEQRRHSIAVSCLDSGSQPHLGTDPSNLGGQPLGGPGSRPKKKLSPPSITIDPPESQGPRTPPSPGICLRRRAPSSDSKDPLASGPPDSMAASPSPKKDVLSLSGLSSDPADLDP

Consider `N[C@@H]1CCCC[C@H]1C(=O)N1CCC(CC(=O)Nc2cc(C(F)(F)F)cc(C(F)(F)F)c2)CC1` [Compound 6, 2-(1-((1R,2R)-2-aminocyclohexanecarbonyl)piperidin-4-yl)-N-(3,5-bis(trifluoromethyl)phenyl)acetamide], for which the IC50 at α1H (CaV 3.2) is 0.25 µM; at α1G (CaV 3.1), over 10 µM.
As to `N[C@H]1CCCC[C@H]1C(=O)N1CCC(CC(=O)Nc2cc(C(F)(F)F)cc(C(F)(F)F)c2)C1` (stereo partly drawn) [Compound 30, 2-(1-((1R,2S)-2-aminocyclohexanecarbonyl)pyrrolidin-3-yl)-N-(3,5-bis(trifluoromethyl)phenyl)acetamide], the IC50 on α1H (CaV 3.2) worked out at 0.71 µM; on α1G (CaV 3.1), 8.95 µM.
On the same counts, the results for `CC(C)(N)CC(=O)N1CC(CC(=O)Nc2cc(C(F)(F)F)cc(C(F)(F)F)c2)C1` [Compound 43, 2-(1-(3-amino-3-methylbutanoyl)azetidin-3-yl)-N-(3,5-bis(trifluoromethyl)phenyl)acetamide] are over 10 µM and over 10 µM.
Take `N[C@@H]1CCCC[C@H]1C(=O)N1CCC(CC(=O)Nc2cc(C(F)(F)F)cc(C(F)(F)F)c2)C1` (stereo partly drawn) [Compound 32, 2-(1-((1R,2R)-2-aminocyclohexanecarbonyl)pyrrolidin-3-yl)-N-(3,5-bis(trifluoromethyl)phenyl)acetamide]: the values for the IC50 at α1H (CaV 3.2) and at α1G (CaV 3.1) were 0.63 µM and 5.66 µM, respectively.
On the same counts, the results for `N[C@@H]1CCCC[C@@H]1C(=O)N1CCC(CC(=O)Nc2cc(C(F)(F)F)cc(C(F)(F)F)c2)C1` (stereo partly drawn) [Compound 31, 2-(1-((1S,2R)-2-aminocyclohexanecarbonyl)pyrrolidin-3-yl)-N-(3,5-bis(trifluoromethyl)phenyl)acetamide] are 0.46 µM and 6.19 µM.
For the compound `O=C(CC1CCN(C(=O)C2CCCCN2)C1)Nc1cc(C(F)(F)F)cc(C(F)(F)F)c1` (centres unmarked) [Compound 29, N-(3,5-bis(trifluoromethyl)phenyl)-2-(1-(piperidine-2-carbonyl)pyrrolidin-3-yl)acetamide], the 50% inhibitory concentration (IC50) at α1H (CaV 3.2) came out at 0.57 µM; at α1G (CaV 3.1), 7.02 µM.
For the compound `CC(C)(CN)C(=O)N1CCC(CC(=O)Nc2cc(C(F)(F)F)cc(C(F)(F)F)c2)CC1` [Compound 45, 2-(1-(3-amino-2,2-dimethylpropanoyl)piperidin-4-yl)-N-(3,5-bis(trifluoromethyl)phenyl)acetamide], the IC50 on α1H (CaV 3.2) was 0.54 µM; on α1G (CaV 3.1), over 10 µM.
The like results for `CC(C)(CN)C(=O)N1CCC(CC(=O)Nc2cc(C(F)(F)F)cc(C(F)(F)F)c2)C1` (centres unmarked) [Compound 47, 2-(1-(3-amino-2,2-dimethylpropanoyl)pyrrolidin-3-yl)-N-(3,5-bis(trifluoromethyl)phenyl)acetamide] were, in that order, 3.37 µM and over 10 µM.
The like results for `CN1CCCC(C(=O)N2CCC(CC(=O)Nc3cc(C(F)(F)F)cc(C(F)(F)F)c3)C2)C1` (centres unmarked) [Compound 36, N-(3,5-bis(trifluoromethyl)phenyl)-2-(1-(1-methylpiperidine-3-carbonyl)pyrrolidin-3-yl)acetamide] were, in that order, 2.44 µM and 8.1 µM.
On to `N[C@H]1CCCC[C@H]1C(=O)N1CC(CC(=O)Nc2cc(C(F)(F)F)cc(C(F)(F)F)c2)C1` (racemic) [Compound 41, cis-2-(1-(2-aminocyclohexanecarbonyl)azetidin-3-yl)-N-(3,5-bis(trifluoromethyl)phenyl)acetamide], for which the half-inhibitory concentration (IC50) is 0.85 µM at α1H (CaV 3.2) and over 10 µM at α1G (CaV 3.1).
On the same counts, the results for `CN1CCCC(C(=O)N2CCC(CC(=O)Nc3cc(C(F)(F)F)cc(C(F)(F)F)c3)CC2)C1` (centres unmarked) [Compound 1, N-(3,5-bis(trifluoromethyl)phenyl)-2-(1-(1-methylpiperidine-3-carbonyl)piperidin-4-yl)acetamide] are 0.51 µM and over 10 µM.
Regarding `N[C@@H]1CCCC[C@H]1C(=O)N1CC(CC(=O)Nc2cc(C(F)(F)F)cc(C(F)(F)F)c2)C1` (racemic) [Compound 40, trans-2-(1-(2-aminocyclohexanecarbonyl)azetidin-3-yl)-N-(3,5-bis(trifluoromethyl)phenyl)acetamide], the IC50 on α1H (CaV 3.2) is 0.83 µM; on α1G (CaV 3.1), over 10 µM.
The like results for `N[C@H]1CCCC[C@@H]1C(=O)N1CCC(CC(=O)Nc2cc(C(F)(F)F)cc(C(F)(F)F)c2)C1` (stereo partly drawn) [Compound 33, 2-(1-((1S,2S)-2-aminocyclohexanecarbonyl)pyrrolidin-3-yl)-N-(3,5-bis(trifluoromethyl)phenyl)acetamide] were, in that order, 0.26 µM and 5.29 µM.
Regarding `CC(C)(CN)C(=O)N1CC(CC(=O)Nc2cc(C(F)(F)F)cc(C(F)(F)F)c2)C1` [Compound 46, 2-(1-(3-amino-2,2-dimethylpropanoyl)azetidin-3-yl)-N-(3,5-bis(trifluoromethyl)phenyl)acetamide], the IC50 on α1H (CaV 3.2) and at α1G (CaV 3.1) was over 10 µM throughout.
Consider `CN1CCCCC1C(=O)N1CCC(CC(=O)Nc2cc(C(F)(F)F)cc(C(F)(F)F)c2)C1` (centres unmarked) [Compound 35, N-(3,5-bis(trifluoromethyl)phenyl)-2-(1-(1-methylpiperidine-2-carbonyl)pyrrolidin-3-yl)acetamide], for which the IC50 on α1H (CaV 3.2) is 1.95 µM; at α1G (CaV 3.1), 6.02 µM.
For `N[C@@H]1CCCC[C@H]1C(=O)N1CCC(CNC(=O)c2cc(C(F)(F)F)cc(C(F)(F)F)c2)CC1` (racemic) [Compound 48], the IC50 on α1H (CaV 3.2) was 1.85 µM; on α1G (CaV 3.1), over 10 µM.
On the same counts, the results for `N[C@H]1CCCC[C@H]1C(=O)N1CCC(CC(=O)Nc2cc(C(F)(F)F)cc(C(F)(F)F)c2)CC1` (racemic) [Compound 5, cis-2-(1-(2-aminocyclohexanecarbonyl)piperidin-4-yl)-N-(3,5-bis(trifluoromethyl)phenyl)acetamide] are 0.1 µM and over 10 µM.
Consider `CN1CCCCC1C(=O)N1CC(CC(=O)Nc2cc(C(F)(F)F)cc(C(F)(F)F)c2)C1` (centres unmarked) [Compound 37, N-(3,5-bis(trifluoromethyl)phenyl)-2-(1-(1-methylpiperidine-2-carbonyl)azetidin-3-yl)acetamide], for which the IC50 is 4.39 µM on α1H (CaV 3.2) and over 10 µM on α1G (CaV 3.1).
The like results for `N[C@H]1CCCC[C@@H]1C(=O)N1CCC(CC(=O)Nc2cc(Cl)cc(Cl)c2)CC1` (racemic) [Compound 17, trans-2-(1-(2-aminocyclohexanecarbonyl)piperidin-4-yl)-N-(3,5-dichlorophenyl)acetamide] were, in that order, 0.69 µM and over 10 µM.
Turning to `CN1CCCC(C(=O)N2CC(CC(=O)Nc3cc(C(F)(F)F)cc(C(F)(F)F)c3)C2)C1` (centres unmarked) [Compound 38, N-(3,5-bis(trifluoromethyl)phenyl)-2-(1-(1-methylpiperidine-3-carbonyl)azetidin-3-yl)acetamide], the IC50 on α1H (CaV 3.2) was 8.04 µM; on α1G (CaV 3.1), over 10 µM.
On the same counts, the results for `NC1(C(=O)N2CCC(CC(=O)Nc3cc(C(F)(F)F)cc(C(F)(F)F)c3)CC2)CCCCC1` [Compound 9, 2-(1-(1-aminocyclohexanecarbonyl)piperidin-4-yl)-N-(3,5-bis(trifluoromethyl)phenyl)acetamide] are 0.99 µM and 4.68 µM.
The like results for `CC(C)(N)CC(=O)N1CCC(CC(=O)Nc2cc(C(F)(F)F)cc(C(F)(F)F)c2)C1` (centres unmarked) [Compound 44, 2-(1-(3-amino-3-methylbutanoyl)pyrrolidin-3-yl)-N-(3,5-bis(trifluoromethyl)phenyl)acetamide] were, in that order, 2.1 µM and over 10 µM.
The like results for `N[C@H]1CCCC[C@@H]1C(=O)N1CCC(CC(=O)Nc2ccc(Br)c(C(F)(F)F)c2)CC1` (racemic) [Compound 20, trans-2-(1-(2-aminocyclohexanecarbonyl)piperidin-4-yl)-N-(4-bromo-3-(trifluoromethyl)phenyl)acetamide] were, in that order, 0.92 µM and over 10 µM.
Regarding `N[C@H]1CCCC[C@@H]1C(=O)N1CCC(CC(=O)Nc2cc(Br)cc(C(F)(F)F)c2)CC1` (racemic) [Compound 19, trans-2-(1-(2-aminocyclohexanecarbonyl)piperidin-4-yl)-N-(3-bromo-5-(trifluoromethyl)phenyl)acetamide], the values for the IC50 at α1H (CaV 3.2) and at α1G (CaV 3.1) were 0.28 µM and over 10 µM, respectively.
Take `O=C(CC1CN(C(=O)C2CCCCN2)C1)Nc1cc(C(F)(F)F)cc(C(F)(F)F)c1` (centres unmarked) [Compound 39, N-(3,5-bis(trifluoromethyl)phenyl)-2-(1-(piperidine-2-carbonyl)azetidin-3-yl)acetamide]: the IC50 at α1H (CaV 3.2) is 1.21 µM; on α1G (CaV 3.1) it was over 10 µM.

(Values after US20120220564A1, “SELECTIVE CALCIUM CHANNEL MODULATORS” (Zalicus Pharmaceuticals Ltd., priority 2009, published 2012).)
